Each structure is given as a SMILES string. Active and inactive are the calls of the source. How the calls were made is not given here.

Tested on in one experiment: not listed separately
Briefly: cytotoxicity in HepG2 cells, cytotoxicity control, cell-based (AID 504642). Conditions: HepG2 viability, cytotoxicity counter-screen; at 25 µM (top of the series).
As for `COC(=O)C(Nc1nc(SCC(=O)NC2CCCCC2)nc2ccccc12)c1ccccc1` (stereo unspecified), the viability is 100% (inactive).
Consider `O=C(/C=C/c1ccccc1)N1CCN(CCN2C(=O)c3cccc4cccc(c34)C2=O)CC1`, for which the viability was 91.1% (inactive).

Still in this experiment, the particulars now being: HepG2 viability, cytotoxicity counter-screen; at 50 µM (top of the series).
For `CCOC(=O)CNC(=O)[C@H](Cc1ccccc1)NC(=O)OCc1ccccc1`, the viability was 97.3% (inactive).
Same read-out and setting: as for `O=C(/C=C\c1cccs1)N1CCN(Cc2ccc3c(c2)OCO3)CC1`, the figure is 84.1% (inactive); as for `COc1cc(NC(=O)C/C(C)=N/NC(=O)c2ccccn2)c(OC)cc1Cl`, 86.2% (inactive); as for `COC(=O)C(C)Oc1ccc(-c2nccc(-c3ccccn3)n2)cc1` (stereo unspecified), 95.4% (inactive).
The same measure, in the same setting: as for `O=C(CSc1nc2ccccc2c(=O)[nH]1)NC1CCCCC1`, the figure is 103% (inactive); as for `COC(=O)C1CC(=O)N(c2ccc(OCc3ccccc3Cl)cc2)C1` (stereo unspecified), 98.6% (inactive).
For `COC(=O)c1ccc(CNc2c(N3CCCC3)c(=O)c2=O)cc1`, the viability is 97.5% (inactive).
Consider `O=C(CSc1nc2ccccc2c(=O)[nH]1)NCc1ccc(Cl)cc1`, for which the viability was 90.7% (inactive).
Regarding `COC(=O)CCc1nc2c(C#N)c(-c3ccc(Cl)cc3)ccn2n1`, the viability is 102% (inactive).
Same read-out and setting: with `CCc1ccc(/C=C2/C(=O)N(C)C(=S)N2CC(=O)OC)s1` the figure was 78.9% (inactive).
Same read-out and setting: as for `Cc1nc(SCC(=O)NC2CCCCC2)[nH]c(=O)c1C`, the figure is 105% (inactive).
Same read-out and setting: with `O=C1C(Br)=Cc2cccc3cccc1c23` the figure was 86.1% (inactive).
Take `Cc1ccc(NC(=O)C2C3/C=C\CCCCC32)cc1C` (stereo unspecified): the viability is 101% (inactive).
As for `CC(=NCc1ccc2c(c1)OCO2)C1=C(O)c2ccccc2C1=O`, the viability was 96.6% (inactive).
The same measure, in the same setting: with `CC1CCN(C(=O)C2CCN(c3nnc(-n4cccc4)s3)CC2)CC1` the figure was 81.6% (inactive); with `CCOC1OC(=O)C(Cl)=C1Nc1ccccc1C` (stereo unspecified), 97.8% (inactive); with `CC[N+](C)(CC)CCCCOc1ccc2c(c1)C(=O)c1cc(OCCCC[N+](C)(CC)CC)ccc1-2`, 93.8% (inactive).
Regarding `CCOC(=O)COc1ccc(/C=C2\NC(=S)N(CC)C2=O)cc1`, the viability was 94.6% (inactive).
For the compound `CCOC(=O)C(C)Sc1ncnc2c1nnn2-c1ccc(F)cc1` (stereo unspecified), the viability was 94.1% (inactive).
The same measure, in the same setting: with `CCOC(=O)COn1c2c(c3c4no[n+]([O-])c4ccc31)CCCC2` the figure was 85.5% (inactive).

A further experiment has as its system HepG2 viability, cytotoxicity counter-screen. The description is as above.
Conditions: not given
As to `Cc1ccc2c(c1)c(C1=c3ccccc3=NC1=O)c(O)n2C`, the CC50 is 12.9 µM.
Still for that read-out and setting: as for `CCC(C)Nc1ccc(NC(C)CC)cc1` (stereo unspecified), the figure is 6.41 µM; as for `Cc1nn2c(NCc3ccccn3)cc(C(C)C)nc2c1-c1ccccc1`, less than 0.098 µM.
The same measure, in the same setting: with `CNc1nc(SCc2ccccc2Cl)nc2c1CCCC2` the figure was 26.2 µM.
As for `Cc1cccc(/C=C/C(=O)c2ccc([N+](=O)[O-])o2)c1`, the CC50 is 7.91 µM.
On the same count and under the same terms, as for `Cc1ccc(C(=O)N/N=C(/CC(=O)c2cccs2)C(F)(F)F)cc1`, the figure is 27.5 µM; as for `Cc1cccc(-c2oc3ccc(-c4ccc5c(c4)OCO5)cc3c2C#Cc2cncn2C)c1`, 44.4 µM; as for `CC(C)NC(=O)c1sc(=S)n2c1[nH]c(=O)c1ccc(C(=O)NCCc3ccc(Cl)cc3)cc12`, 46.1 µM.
As to `Oc1ccccc1/C=N/Nc1ccnc(SCc2ccccc2)n1`, the CC50 is 20.1 µM.
Consider `S=c1nc[nH]c2nc[nH]c12`, for which the CC50 was 7.74 µM.
With `c1ccc(/N=C2\N=C(Nc3ccccn3)c3ccccc32)nc1`, the CC50 was less than 0.098 µM.
With `Cc1ccc2ccc3ccc(C)nc3c2n1`, the CC50 is less than 0.195 µM.
Same read-out and setting: as for `COC(=O)c1cc(=O)n(-c2ccc(F)cc2)c(=Nc2ccc(F)cc2)s1`, the figure is 19.4 µM.
Same read-out and setting: with `CCOC(=O)c1ccc(NC(=O)Cn2ncc(Cl)c(Cl)c2=O)cc1` the figure was 8.43 µM.

Values taken from PubChem BioAssay AID504642 (Southern Research Specialized Biocontainment Screening …, 2011).
